Source: US12391672B2, “Solid forms comprising (S)-4-(4-(4-(((2-(2,6-dioxopiperidin-3-yl)-1-oxoisoindolin-4-yl)oxy)methyl)benzyl)piperazin-1-yl)-3-fluorobenzonitrile and salts thereof, and compositions comprising and methods of using the same” (Celgene Corporation, priority 2019, dated 2025)
Values after ≈ are worked out from the molar mass of the structure shown. Values joined by “and” are separate entries in the source; they are usually repeats but may differ in a detail not shown here. Equal values may be shown once.

How the values were obtained:
[1] = Dynamic vapor sorption / hygroscopicity; format: physicochemical; settings: for hygroscopicity: DVS, class by mass gain at 85% r.h.; for DVS mass increase: relative humidity from about 5% to about 95%
Protocol: Projekt Messtechnik (now ProUmid) SPS11-100n. The sample was placed on an aluminum holder on top of a microbalance and allowed to equilibrate at 50% r.h. before starting one of the following pre-defined humidity programs (1 cycle): • hold 2 h at 50% r.h., • decrease humidity −5% r.h. h^−1 for 10 h (i.e., from 50% r.h. to 0% r.h.), • hold 5 h at […]., • increase humidity +5% r.h. h^−1 for 19 h (i.e., from 0% r.h. to 95% r.h.), • hold 5 h at 95% r.h., • decrease humidity −5% r.h. h^−1 for 9 h (i.e., from 95% r.h. to 50% r.h.), • hold 2 h at 50% r.h. or • hold 2 h at 50% r.h., • increase humidity +5% r.h. h^−1 for 9 h (i.e., from 50% r.h. to 95% r.h.), • hold 5 h at 95% r.h., • decrease humidity −5% r.h. h^−1 for 19 h (i.e., from 95% r.h. to 0% r.h.), • hold 5 h at 0% r.h., • increase humidity +5% r.h. h^−1 for 10 h (i.e., from 0% r.h. to 50% r.h.), • hold 2 h at 50% r.h.
The hygroscopicity was classified based on the mass gain at 85% r.h. relative to the initial mass as follows: deliquescent (sufficient water adsorbed to form a liquid), very hygroscopic (mass increase of […]), hygroscopic (mass increase of <15% but ≥2%), slightly hygroscopic (mass increase of <2% but ≥0.2%), or non-hygroscopic (mass increase of <0.2%).

[2] = Thermal treatment / racemization on heating; format: physicochemical
Protocol: Thermal treatment of solid forms: the following table summarizes two experiments carried out using solvent-free thermal treatment of forms of Compound 1. The goal of these experiments was to determine whether the endotherm at 225° C. observed in many DSC experiments corresponded to the melting of the racemate of Compound 1 or whether it was a polymorphic form of Compound 1. Two experiments involved generation of different solid forms of Compound 1, the amorphous form and Form E. The resulting products were subsequently heated to temperatures where exothermic events had been observed in DSC thermograms. Both experiments confirmed that the racemate was generated by heating.
Racemization of Compound 1 during the DSC analysis was confirmed by heating the samples to various temperatures and analyzing these samples by a chiral HPLC method as well as by comparison of the melting point with a pure sample of the racemate of Compound 1. Upon heating the sample to 160° C., the chiral purity was essentially unchanged (96.1 area % at 160° C. vs. 97.1% initial). This supports the interpretation of the sharp endotherm seen in the DSC thermogram at about 152.6° C. as the melt of the enantiomer. Between 160-218° C. a gradual conversion of the enantiomer to the racemate occurs along with the recrystallization of the racemate. This explains the unsteady baseline over this temperature range and the small broad endotherm observed at about 197.1° C. […] This melting point matches the peak melting point (about 225.6° C.) of the pure racemate of Compound 1.

[3] = Solubility of polymorphic forms in physiologically relevant media and final pH; format: physicochemical
Text: Solubility data of the several polymorphic forms of Compound 1 in physiologically relevant media and the final pH of these solutions are summarized in the following tables.

[4] = Solid state stability under accelerated storage conditions; format: physicochemical; settings: for Chiral purity after storage: initial value 97.96 area %; for area % chemical purity after storage: initially 98.4%
Protocol: Form A was not isolated directly as a wet cake but formed only upon drying of Form E in polymorphism studies. […] Small quantities of Form A were generated by dissolving a crude Compound 1 in MEK at high temperature, followed by fast cooling to room temperature, filtration and drying. DSC and TGA data were obtained for samples of Form A and following storage for 1 week at 60° C. and 60° C./75% RH. […] TGA analysis confirmed that this broad endotherm was most likely due to moisture uptake under the accelerated storage conditions. Most of the weight loss of 0.82% in this sample occurred in a single step at less than 75° C. By contrast, weigh loss was a two-step process at the initial time point. […] The residual solvent initially present in the sample was lost upon storage of the sample at 60° C. (0.13% weight loss between 25 to 150° C.).
Form B could be obtained from a process involving methyl acetate. […] HPLC traces were taken of the samples of Form B and following storage for 2 week at 60° C. and 60° C./75% RH. […] Several small degradation products were seen to grow especially in the sample stored at 60° C. Chiral instability was also observed in the sample stored at 60° C./75% RH.
Physical stability: Visually, all samples of Form K were white colored powder with no apparent change in color in the samples stored under accelerated conditions (40° C., 40° C./75% RH, 60° C., 60° C./75% RH and sample stored in light chamber in clear vials exposed to light and covered in aluminum foil) for 14 d relative to the sample stored refrigerated and under ambient conditions.
Solid state chemical stability: HPLC analysis were performed on Form K samples stored under the accelerated stability conditions. […] Based on the HPLC analysis data, there is a measurable but small change in the chemical stability of Form K under the accelerated conditions of temperature, humidity and exposure to light over the 14 d period.
Solid state chiral stability: Chiral stability of Form K samples stored under accelerated stability conditions was tested. There was ˜2.9% of the R-enantiomer (97.1 area % of the active S-isomer) in the initial sample. […]
The chiral purity (area % of S-isomer) remained […] under the accelerated stability conditions.

[5] = Mechanical stressing (grinding, compression); format: physicochemical; settings: ground with a mortar and pestle for 2 min
Protocol: Mechanical stressing experiment: the following table describes three experiments involving mechanical stressing of Form A and/or Form B of free base Compound 1 by grinding with a mortar and pestle.
Shear Sensitivity: Form K was compressed under 2000 psi for 1 minute and analyzed by XRPD.

[6] = Competitive slurry and slurry stability experiments; format: physicochemical; settings: aqueous slurry at room temperature, within 24 hr
Protocol: Form B was obtained at room temperature while form C was obtained at 45° C. in acetone alone.
The HBr salt was largely insoluble in various buffers when 1 mg/mL slurries were prepared and the mother liquor concentration determined (by HPLC): <0.05 mg/mL in all buffers tested.

[7] = test system: non-selective α1 adrenergic receptor; test: α1 adrenergic receptor binding at 10 μM ([3H]prazosin); settings: 0.25 nM [3H]prazosin, rat cerebral cortex membranes
Protocol: (§1) α1 Adrenergic and Dopamine D2 Receptors. Methods: Binding and functional assays for α1 adrenergic and dopamine D2 receptors were performed by Eurofins Cerep according to their methods.
α1 Adrenergic Receptor. Binding at 10 μM. The binding assay evaluated the affinity of test article for the non-selective α1 adrenergic receptor in rat cerebral cortex. Membrane homogenates of cerebral cortex were incubated in duplicate for 60 minutes at room temperature with 0.25 nM [^3H]prazosin in the absence or presence of test articles at 10 μM. After the incubation period, samples were filtered through glass fiber filters, the filters dried and then counted for radioactivity using a scintillation counter. Results are expressed as mean percent inhibition of control radioligand binding.

dopamine D2S receptor = target: T1, dopamine D2S receptor (Homo sapiens, UniProt P14416); test: Dopamine D2S receptor binding at 10 μM; settings: transfected HEK-293 cell membranes, read-out: Dopamine D2S % Inh. (@10 μM)
T1 construct: host or cells: HEK-293
T1 sequence (P14416 1-414 isoform P14416-2): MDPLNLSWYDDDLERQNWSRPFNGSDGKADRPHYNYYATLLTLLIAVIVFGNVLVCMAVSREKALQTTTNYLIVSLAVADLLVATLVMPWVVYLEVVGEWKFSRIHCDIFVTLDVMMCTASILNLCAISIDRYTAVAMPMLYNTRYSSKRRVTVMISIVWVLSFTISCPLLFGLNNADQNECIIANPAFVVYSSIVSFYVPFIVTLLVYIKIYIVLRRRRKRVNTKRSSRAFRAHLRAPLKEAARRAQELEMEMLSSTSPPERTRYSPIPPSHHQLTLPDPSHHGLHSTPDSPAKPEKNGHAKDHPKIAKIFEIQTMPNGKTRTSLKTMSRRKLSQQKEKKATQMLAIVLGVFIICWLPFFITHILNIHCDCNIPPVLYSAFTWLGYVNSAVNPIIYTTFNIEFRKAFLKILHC
Protocol: as §1
Dopamine D2 Receptor. Binding at 10 μM. The binding assay evaluated the affinity of test articles for the dopamine D2 receptor in transfected human embryonic kidney (HEK)-293 cells. For determining the binding in the D2S receptor assay, test article was incubated with 0.3 nM [^3H] methylspiperone or 1 nM [^3H] 7-hydroxy-2-N,N-dipropylaminotetralin (7-OH-DPAT). [^3H] Methylspiperone at 0.3 nM also was used as control ligand in the D2L binding assay. Cell membrane homogenates were incubated in duplicate at room temperature for 60 minutes with ligand in the absence or presence of test articles at 10 μM. After the incubation period, samples were filtered through glass fiber filters, the filters dried and then counted for radioactivity using a scintillation counter. Results are expressed as mean percent inhibition of control radioligand binding.

With `N#Cc1ccc(N2CCN(Cc3ccc(COc4cccc5c4CN([C@H]4CCC(=O)NC4=O)C5=O)cc3)CC2)c(F)c1` [Form E of a free base of Compound 1] the “solid form after DVS cycle” value ([1]; after the DVS humidity cycle, listed as Form E) was “primarily amorphous material” and the “PXRD result after thermal treatment” value ([2]; N2 flow, 200° C. held for several minutes, cooled quickly) was “racemate”.
Work on `N#Cc1ccc(N2CCN(Cc3ccc(COc4cccc5c4CN([C@H]4CCC(=O)NC4=O)C5=O)cc3)CC2)c(F)c1` [Form B of a free base of Compound 1] yielded a Solubility ([3]; FeSSiF, listed as Form B) of 77 µg/mL (≈ 136 µM), a Solubility ([3]; SGF with pepsin, listed as Form B) of 406 µg/mL (≈ 715 µM) and a Solubility ([3]; pH 1 buffer HC1/NaC1, listed as Form B) of 85 µg/mL (≈ 150 µM). The Solubility ([3]; pH 3 buffer (phosphate), listed as Form B) was 125 µg/mL (≈ 220 µM), the Solubility ([3]; pH 4 buffer (acetate), listed as Form B) was 115 µg/mL (≈ 203 µM) and the Solubility ([3]; pH 5 buffer (acetate), listed as Form B) was 7 µg/mL (≈ 12.3 µM). For the same compound, the “Final pH” value ([3]; solubility sample in FaSSIF, listed as Form B) was 6.43, the “Final pH” value ([3]; solubility sample in FeSSiF, listed as Form B) was 5.03 and the “Final pH” value ([3]; solubility sample in SGF with pepsin, listed as Form B) was 1.29. For the same compound, the “Final pH” value ([3]; solubility sample in Water, listed as Form B) was 6.46, the “Final pH” value ([3]; solubility sample in pH 1 buffer HC1/NaC1, listed as Form B) was 1.09 and the “Final pH” value ([3]; solubility sample in pH 3 buffer (phosphate), listed as Form B) was 4.05. The “Final pH” value ([3]; solubility sample in pH 4 buffer (acetate), listed as Form B) was 4.11, the “Final pH” value ([3]; solubility sample in pH 5 buffer (acetate), listed as Form B) was 5.05 and the hygroscopicity ([1]; listed as Form B) was “slightly hygroscopic (slightly hygroscopic (mass increase of <2% but ≥0.2%))”. For the same compound, the DVS mass increase ([1]; listed as Form B) was “about 3.1%”, the “Chiral purity after storage” value ([4]; 2 week at 60° C./75% RH) was 96.54 area % and the “area % chemical purity after storage” value ([4]; 2 week at 60° C./75% RH) was 97.92%. For the same compound, the “Chiral purity after storage” value ([4]; 2 week at 60° C.) was “remained unchanged”, the “area % chemical purity after storage” value ([4]; 2 week at 60° C.) was 97.71% and the colour after storage ([4]; stored at 60° C., initially white to light brown) was “Color change was observed”. For the same compound, the “PXRD result after mechanical treatment” value ([5]; listed as Form B) was “no change in polymorphic form” and the “competitive slurry with Form C” value [6] was “rapidly converted to Form C”.
For `O=C1CCC(N2Cc3c(OCc4ccc(CN5CCN(c6ccc(F)cc6F)CC5)cc4)cccc3C2=O)C(=O)N1` (racemic) [Compound A, 3-(4-((4-((4-(2,4-difluorophenyl)piperazin-1-yl)methyl)benzyl)oxy)-1-oxoisoindolin-2-yl)piperidine-2,6-dione, reference compound], the “Adrenergic α1 % Inh. (@10 μM)” value [7] was 102%.
Work on `N#Cc1ccc(N2CCN(Cc3ccc(COc4cccc5c4CN([C@H]4CCC(=O)NC4=O)C5=O)cc3)CC2)c(F)c1` [Form A of a free base of Compound 1] yielded a Solubility ([3]; FeSSiF, listed as Form A) of 86 µg/mL (≈ 152 µM), a Solubility ([3]; SGF with pepsin, listed as Form A) of 429 µg/mL (≈ 756 µM) and a Solubility ([3]; pH 1 buffer HC1/NaC1, listed as Form A) of 88 µg/mL (≈ 155 µM). It also gave a Solubility ([3]; pH 3 buffer (phosphate), listed as Form A) of 280 µg/mL (≈ 493 µM), a Solubility ([3]; pH 4 buffer (acetate), listed as Form A) of 159 µg/mL (≈ 280 µM) and a Solubility ([3]; pH 5 buffer (acetate), listed as Form A) of 8 µg/mL (≈ 14.1 µM). The “Final pH” value ([3]; solubility sample in FaSSIF, listed as Form A) was 6.44, the “Final pH” value ([3]; solubility sample in FeSSiF, listed as Form A) was 5.05 and the “Final pH” value ([3]; solubility sample in SGF with pepsin, listed as Form A) was 1.34. For the same compound, the “Final pH” value ([3]; solubility sample in Water, listed as Form A) was 6.77, the “Final pH” value ([3]; solubility sample in pH 1 buffer HC1/NaC1, listed as Form A) was 1.14 and the “Final pH” value ([3]; solubility sample in pH 3 buffer (phosphate), listed as Form A) was 3.70. For the same compound, the “Final pH” value ([3]; solubility sample in pH 4 buffer (acetate), listed as Form A) was 4.11, the “Final pH” value ([3]; solubility sample in pH 5 buffer (acetate), listed as Form A) was 5.03 and the hygroscopicity ([1]; listed as Form A) was “slightly hygroscopic (slightly hygroscopic (mass increase of <2% but ≥0.2%))”. The DVS mass increase ([1]; listed as Form A) was “about 2.4%”, the “DSC trace after storage” value ([4]; 1 week at 60° C.) was “quite similar to the initial condition” and the “physical form after storage (DSC, TGA)” value ([4]; 1 week at 60° C./75% RH) was “changes in physical form were observed”. For the same compound, the “PXRD result after mechanical treatment” value ([5]; listed as Form A) was “no change in polymorphic form;”.
In the case of `N#Cc1ccc(N2CCN(Cc3ccc(COc4cccc5c4CN([C@H]4CCC(=O)NC4=O)C5=O)cc3)CC2)c(F)c1` [Compound 1, (S)-4-(4-(4-(((2-(2,6-dioxopiperidin-3-yl)-1-oxoisoindolin-4-yl)oxy)methyl)benzyl)piperazin-1-yl)-3-fluorobenzonitrile], the “Adrenergic α1 % Inh. (@10 μM)” value [7] is reported as 67% and 62%, the inhibition at 10 µM (dopamine D2S receptor) is reported as 55% and the racemization on heating ([2]; DSC heating, chiral HPLC, gradual between 160-218° C.) is reported as “almost complete by 218 °C”. For the same compound, the “chiral purity upon heating” value ([2]; heated to 160° C., 97.1% initial) was 96.1 area %.
